Columns and labels:
Assay in all cases: biochemical
[1] = target: T1, Adenosine receptor A2a (Homo sapiens, UniProt P29274)
[2] = target: T1, Adenosine receptor A2a; remark: listed apart in the source
Description: Inhibition of [3H]CGS-21680 binding to human Adenosine A2a receptor expressed in HEK293 cells; Range 438-749

[3] = target: T2, Adenosine receptor A1 (Homo sapiens, UniProt P30542)
T2 sequence (P30542 whole entry): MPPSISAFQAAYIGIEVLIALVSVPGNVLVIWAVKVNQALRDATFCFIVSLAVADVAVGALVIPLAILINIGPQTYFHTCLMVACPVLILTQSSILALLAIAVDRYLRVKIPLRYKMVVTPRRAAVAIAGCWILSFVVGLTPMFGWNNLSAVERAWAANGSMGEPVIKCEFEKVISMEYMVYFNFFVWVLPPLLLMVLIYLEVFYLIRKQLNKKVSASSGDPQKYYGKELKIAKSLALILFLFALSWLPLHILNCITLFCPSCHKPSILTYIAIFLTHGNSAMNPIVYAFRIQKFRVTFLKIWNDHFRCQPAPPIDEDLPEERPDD

[4] = target: T3, Adenosine receptor A2b (Homo sapiens, UniProt P29275)
T3 sequence (P29275 whole entry): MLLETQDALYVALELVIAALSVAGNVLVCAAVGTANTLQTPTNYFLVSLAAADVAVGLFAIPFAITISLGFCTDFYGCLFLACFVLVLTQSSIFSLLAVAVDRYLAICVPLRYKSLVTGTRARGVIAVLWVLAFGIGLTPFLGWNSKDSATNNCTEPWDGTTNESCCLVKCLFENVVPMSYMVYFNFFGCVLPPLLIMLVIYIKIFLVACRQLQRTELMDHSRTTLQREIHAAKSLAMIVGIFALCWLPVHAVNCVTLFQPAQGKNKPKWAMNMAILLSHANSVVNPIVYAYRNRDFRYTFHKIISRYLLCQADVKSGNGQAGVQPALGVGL
Description: Inhibition of [3H]DPCPX binding to human Adenosine A2B receptor expressed in HEK cells; range 640-1100

[5] = target: T2, Adenosine receptor A1; remark: listed apart in the source
[6] = target: T3, Adenosine receptor A2b; remark: listed apart in the source
Description: Inhibition of [3H]DPCPX binding to human Adenosine A2B receptor expressed in HEK cells; Range 3580-12400

[7] = target: T2, Adenosine receptor A1; remark: listed apart in the source
Description: Inhibition of [3H]DPCPX binding to human Adenosine A1 receptor expressed in CHO cells; Range 256-620

[8] = target: T1, Adenosine receptor A2a; remark: listed apart in the source
[9] = target: T3, Adenosine receptor A2b; remark: listed apart in the source
[10] = target: T2, Adenosine receptor A1; assay type: cell-based, CHO
Description: Inhibition of [3H]DPCPX binding to human Adenosine A1 receptor expressed in CHO cells

[11] = target: T1, Adenosine receptor A2a; remark: listed apart in the source
Description: Inhibition of [3H]CGS-21680 binding to human Adenosine A2A receptor expressed in HEK293 cells

T1 sequence (P29274 whole entry): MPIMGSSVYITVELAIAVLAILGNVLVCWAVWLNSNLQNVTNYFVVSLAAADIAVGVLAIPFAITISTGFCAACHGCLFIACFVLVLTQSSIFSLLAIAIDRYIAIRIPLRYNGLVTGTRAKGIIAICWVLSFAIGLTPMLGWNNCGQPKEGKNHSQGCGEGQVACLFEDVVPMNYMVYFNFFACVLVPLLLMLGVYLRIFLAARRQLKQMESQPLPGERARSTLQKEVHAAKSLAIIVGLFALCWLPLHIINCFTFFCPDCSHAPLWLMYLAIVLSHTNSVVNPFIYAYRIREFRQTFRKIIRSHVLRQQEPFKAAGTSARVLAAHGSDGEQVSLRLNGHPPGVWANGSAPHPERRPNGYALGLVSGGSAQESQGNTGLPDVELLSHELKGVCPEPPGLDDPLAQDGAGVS

Row | Structure (SMILES) | IC50 [1] [nM] | other results
1 | CCCCCc1nc2nc[nH]c2c2nc(-c3ccccc3)nn12 | 200 | 
2 | CCCCc1nc2nc[nH]c2c2nc(-c3cccc(Cl)c3)nn12 | 56 | 
3 | CCCCc1nc2[nH]cnc2c2nc(-c3cccc(C)c3)nn12 | 188 | 
4 | CCCCc1nc2nc[nH]c2c2nc(-c3ccc(OCC)cc3)nn12 | 3800 | Ki [2]: 572 nM; Ki [3]: 413 nM; Ki [4]: 838 nM
5 | CCCCc1nc2[nH]cnc2c2nc(Cc3ccccc3)nn12 | 47 | 
6 | CCCCc1nc2nc[nH]c2c2nc(-c3ccc(Br)cc3)nn12 | 3300 | 
7 | CCCCc1nc2[nH]cnc2c2nc(-c3cccc(OC)c3)nn12 | 67 | 
8 | CCCCc1nc2[nH]cnc2c2nc(-c3cccnc3)nn12 | 900 | 
9 | CCCCCCc1nc2nc[nH]c2c2nc(-c3ccccc3)nn12 | 7800 | 
10 | CCCCc1nc2[nH]cnc2c2nc(C)nn12 | 46 | 
11 | CCCCc1nc2nc[nH]c2c2nc(-c3ccc(O)cc3)nn12 | 58 | 
12 | CCCCc1nc2[nH]cnc2c2nc(-c3ccc(N(C)C)cc3)nn12 |  | Ki [5]: 1310 nM; Ki [6]: 6660 nM
13 | CCCc1nc2nc[nH]c2c2nc(-c3ccccc3)nn12 | 120 | 
14 | CCCCc1nc2[nH]cnc2c2nc(-c3ccco3)nn12 | 210 | 
15 | CCc1nc2[nH]cnc2c2nc(-c3ccccc3)nn12 | 360 | 
16 | CCCCc1nc2[nH]cnc2c2nc(-c3ccc(OC)cc3)nn12 | 1600 | Ki [7]: 398 nM; Ki [8]: 892 nM; Ki [9]: 1030 nM
17 | CCCCc1nc2[nH]cnc2c2nc(-c3ccc(C)cc3)nn12 | 180 | 
18 | CCCCc1nc2nc[nH]c2c2nc(-c3ccc(F)cc3)nn12 | 510 | 
19 | CCCCc1nc2[nH]cnc2c2nc(-c3cc(OC)c(OC)c(OC)c3)nn12 | 2500 | 
20 | Cc1nc2[nH]cnc2c2nc(-c3ccccc3)nn12 | 550 | 
21 | COc1ccc(-c2csc3nc(=O)cc(N)n23)cc1 |  | Ki [10]: > 10000 nM; Ki [11]: > 10000 nM
